According to patent US20230174523A1, “BENZENESULFONAMIDE DERIVATIVES AS TRAP1 MODULATORS AND USES THEREOF” (Amathus Therapeutics, Inc., priority 2020, published 2023):
pEC50: −log10 of the molar value.

Biological target: T1, TRAP1 enzyme (Homo sapiens, UniProt Q12931)
T1 sequence (Q12931 60-704): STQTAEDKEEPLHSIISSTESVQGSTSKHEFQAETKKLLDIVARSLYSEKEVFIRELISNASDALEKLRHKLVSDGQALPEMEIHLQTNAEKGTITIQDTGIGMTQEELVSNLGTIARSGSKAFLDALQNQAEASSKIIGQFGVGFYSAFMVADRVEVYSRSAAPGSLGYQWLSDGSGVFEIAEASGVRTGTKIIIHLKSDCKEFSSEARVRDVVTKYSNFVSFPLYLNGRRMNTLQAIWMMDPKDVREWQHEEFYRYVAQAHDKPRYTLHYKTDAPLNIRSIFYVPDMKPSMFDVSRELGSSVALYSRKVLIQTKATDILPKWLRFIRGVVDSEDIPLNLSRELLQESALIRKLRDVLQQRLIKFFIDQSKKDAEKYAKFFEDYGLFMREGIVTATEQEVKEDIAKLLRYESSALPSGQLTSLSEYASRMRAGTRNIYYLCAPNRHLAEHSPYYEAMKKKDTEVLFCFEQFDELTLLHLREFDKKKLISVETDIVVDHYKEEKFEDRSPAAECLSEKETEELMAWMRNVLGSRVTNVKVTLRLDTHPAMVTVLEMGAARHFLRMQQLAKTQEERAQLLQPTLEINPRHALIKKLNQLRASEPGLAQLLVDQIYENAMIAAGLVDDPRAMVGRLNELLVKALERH
Assay: Malachite green phosphate assay of TRAP1 ATPase activity
Assay type: biochemical
Settings: for pEC50: TRAP1 ATPase activation, 150 nM Trap1, 20 μM ATP, geometric mean, read-out: Malachite Green Fluor DRC: GeoMean EC50; for Emax: read-out: Malachite Green Fluor DRC: Mean Emax
Experimental: The Potency of test compounds to modulate the ATPase activity of TRAP1 enzyme was evaluated using malachite green phosphatase assay. The assay is based on quantification of the green complex formed between Malachite Green, molybdate and inorganic phosphate generated in the phosphatase reaction. Assays were performed using a Malachite Green assay kit. All the assays were carried out in a 96-well transparent plate. The buffer used was 50 mM HEPES (pH 7.5), 20 mM KCl, 4 mM MgCl2 and 0.05% BSA. 150 nM Trap1 enzyme was incubated with various concentrations of the test compound (0.78 μM-100 μM) at 37° C. for 30 mins. 20 μM ATP was added to each well (except blank wells) to start the reaction and the plate was then incubated at 37° C. for 180 mins. 10 μl of the reaction volume of each sample was then transferred to a white 384-well proxiplate in quadruplets. 2.5 μl of Malachite Green reagent was added to all the wells and the plate was equilibrated for 15 mins. The reaction was stopped by adding 12% H2SO4 and the plate was read for fluorescence at 620 nm (λex=573 nm). The amount of phosphate released was estimated from a phosphate standard curve generated at the same experimental conditions. Emax (Maximal percent activation) and EC50 (concentration of test compound for half maximal activation) were estimated by fitting the dose response data to a sigmoidal curve fitting equation using Graphpad Prism software V.7.0.

Structure (SMILES) | pEC50 | Emax [%]
COc1ccc(NC(=O)c2cnc(-c3ccccc3)[nH]2)cc1S(=O)(=O)N(CCCCCC[P+](c1ccccc1)(c1ccccc1)c1ccccc1)c1ccc(Br)cc1 [Compound 242] | > 5.00 | 200 to 300
COc1ccc(NC(=O)c2cnc(-c3ccccc3)[nH]2)cc1S(=O)(=O)N(CCCCCC(=O)O)c1ccc(Br)cc1 [Compound 243, 6-((N-(4-bromophenyl)-2-methoxy-5-(2-phenyl-1H-imidazole-5-carboxamido)phenyl)sulfonamido) hexanoic acid] | 4.70 to 5.00 | > 300
COc1ccc(NC(=O)c2cnc[nH]2)cc1S(=O)(=O)N(CCCCCCO)c1ccc(Br)cc1 [Compound 246, N-(3-(N-(4-bromophenyl)-N-(6-hydroxyhexyl)sulfamoyl)-4-methoxyphenyl)-1H-imidazole-5-carboxamide] | 4.00 to 4.70 | 200 to 300
CCOC(=O)CCCCCN(c1ccc(Br)cc1)S(=O)(=O)c1cc(NC(=O)c2ncco2)ccc1OC [Compound 247] | > 5.00 | 123 to 159
COc1ccc(NC(=O)c2ncco2)cc1S(=O)(=O)N(CCCCCC(=O)O)c1ccc(Br)cc1 [Compound 250] | 4.70 to 5.00 | 200 to 300
COc1ccc(NC(=O)c2cnc[nH]2)cc1S(=O)(=O)N(CCCCCCBr)c1ccc(Br)cc1 [Compound 251, N-(3-(N-(6-bromohexyl)-N-(4-bromophenyl)sulfamoyl)-4-methoxyphenyl)-1H-imidazole-5-carboxamide] | > 5.00 | 200 to 300
COc1ccc(NC(=O)c2cnc(-c3ccccc3)[nH]2)cc1S(=O)(=O)N(CCCCCCO)c1ccc(Br)cc1 [Compound 253] | 4.70 to 5.00 | 160 to 199
COc1ccc(NC(=O)c2ncco2)cc1S(=O)(=O)N(CCCCCCO)c1ccc(Br)cc1 [Compound 255] | 4.70 to 5.00 | 160 to 199
COc1ccc(NC(=O)c2ncco2)cc1S(=O)(=O)N(CCCCCC[P+](c1ccccc1)(c1ccccc1)c1ccccc1)c1ccc(Br)cc1 [Compound 259] | > 5.00 | > 300
COc1ccc(NC(=O)c2cnc(C(F)(F)F)[nH]2)cc1S(=O)(=O)N(CCCCCC[P+](c1ccccc1)(c1ccccc1)c1ccccc1)c1ccc(Br)cc1 [Compound 260] | > 5.00 | 160 to 199
COc1ccc(NC(=O)c2cnc[nH]2)cc1S(=O)(=O)N(CCCCCCN)c1ccc(Br)cc1 [Compound 266, N-(3-(N-(6-aminohexyl)-N-(4-bromophenyl)sulfamoyl)-4-methoxyphenyl)-1H-imidazole-5-carboxamide] | > 5.00 | 160 to 199
CCc1ccc(NC(=O)c2cnccc2C)cc1S(=O)(=O)Nc1ccc(C)cc1 [Compound 277] | 4.70 to 5.00 | 123 to 159
COc1ccc(NC(=O)c2cnc[nH]2)cc1S(=O)(=O)N(CCOCCOCCBr)c1ccc(Br)cc1 [Compound 286] | > 5.00 | 160 to 199
COc1ccc(NC(=O)c2cnc[nH]2)cc1S(=O)(=O)N(CCOCCOCC[P+](c1ccccc1)(c1ccccc1)c1ccccc1)c1ccc(Br)cc1 [Compound 296] | > 5.00 | 200 to 300
CCCN(c1ccc(Br)cc1)S(=O)(=O)c1cccc(NC(=O)c2ncco2)c1 [Compound 303] | 4.70 to 5.00 | 160 to 199
COc1ccc(NC(=O)c2ncco2)cc1S(=O)(=O)N1CCOCC1 [Compound 309] | 4.00 to 4.70 | 123 to 159
CCOC(=O)Cc1ccc(NC(=O)c2cnccc2C)cc1S(=O)(=O)Nc1ccc(C)cc1 [Compound 317] | 4.70 to 5.00 | 160 to 199
Cc1ccc2c(c1)OCCN2S(=O)(=O)c1cccc(NC(=O)c2ncco2)c1 [Compound 324] | 4.00 to 4.70 | 200 to 300
CN(c1ccc(Br)cc1)S(=O)(=O)c1cc(NC(=O)c2cnc[nH]2)ccc1OCCCCCCO [Compound 342] | 4.00 to 4.70 | 200 to 300

Second part, the molecule after the results:

pEC50 | Emax [%] | Structure (SMILES)
4.00 to 4.70 | 160 to 199 | COc1ccc(NC(=O)c2ncc(C(F)(F)F)[nH]2)cc1S(=O)(=O)Nc1ccc(Br)cc1 [Compound 229, N-(3-(N-(4-bromophenyl)sulfamoyl)-4-methoxyphenyl)-5-(trifluoromethyl)-1H-imidazole-2-carboxamide]
> 5.00 | 123 to 159 | COc1ccc(NC(=O)c2cnc(C(F)(F)F)[nH]2)cc1S(=O)(=O)Nc1ccccc1C [Compound 232]
4.00 to 4.70 | > 300 | COc1ccc(NC(=O)c2cnc(C(F)(F)F)[nH]2)cc1S(=O)(=O)N(CCCCCCO)c1ccc(Br)cc1 [Compound 257]
4.70 to 5.00 | 200 to 300 | COc1ccc(NC(=O)c2cnc(C(F)(F)F)[nH]2)cc1S(=O)(=O)N(CCCCCCBr)c1ccc(Br)cc1 [Compound 262]
4.70 to 5.00 | 160 to 199 | CCOC(=O)CCCCCN(c1ccc(Br)cc1)S(=O)(=O)c1cc(NC(=O)c2cnc(C(F)(F)F)[nH]2)ccc1OC [Compound 263]
4.70 to 5.00 | 160 to 199 | COc1ccc(NC(=O)c2cnc(C(F)(F)F)[nH]2)cc1S(=O)(=O)N(CCCCCC(=O)O)c1ccc(Br)cc1 [Compound 264]
4.70 to 5.00 | 200 to 300 | CCc1ccc(NC(=O)c2cnc(C(F)(F)F)[nH]2)cc1S(=O)(=O)Nc1ccc(C)cc1 [Compound 270]
4.70 to 5.00 | 160 to 199 | Cc1ccc(NS(=O)(=O)c2cccc(NC(=O)c3cnc(C(F)(F)F)[nH]3)c2)cc1 [Compound 271]
4.70 to 5.00 | 200 to 300 | O=C(Nc1ccc(OCCCCCCO)c(S(=O)(=O)Nc2ccc(Br)cc2)c1)c1cnc[nH]1 [Compound 274]
4.70 to 5.00 | 160 to 199 | Cc1ccc(NS(=O)(=O)c2cc(NC(=O)c3cnc(C(F)(F)F)[nH]3)ccc2F)cc1 [Compound 278]
4.00 to 4.70 | 160 to 199 | COc1ccc(NC(=O)c2ocnc2C)cc1S(=O)(=O)Nc1ccc(Br)cc1 [Compound 299]
4.00 to 4.70 | 160 to 199 | O=C(Nc1cccc(S(=O)(=O)Nc2ccc(Br)cc2)c1)c1ncco1 [Compound 302]
4.70 to 5.00 | 200 to 300 | COc1ccc(NC(=O)c2nccs2)cc1S(=O)(=O)Nc1ccc(Br)cc1 [Compound 304]
4.00 to 4.70 | 160 to 199 | COc1ccc(NC(=O)c2ncco2)cc1S(=O)(=O)Nc1ccc(C)cc1 [Compound 307]
4.00 to 4.70 | 123 to 159 | O=C(Nc1ccc(F)c(S(=O)(=O)Nc2ccc(F)cc2)c1)c1ncco1 [Compound 314]
4.70 to 5.00 | 160 to 199 | COc1ccc(NC(=O)c2oc(C(F)(F)F)nc2C)cc1S(=O)(=O)Nc1ccc(Br)cc1 [Compound 315]
4.00 to 4.70 | 200 to 300 | CCc1ccc(NC(=O)c2ncco2)cc1S(=O)(=O)Nc1ccc(C(F)(F)F)cc1 [Compound 316]
4.00 to 4.70 | 200 to 300 | CCOC(=O)Cc1ccc(NC(=O)c2ncco2)cc1S(=O)(=O)Nc1ccc(Br)cc1 [Compound 332]
4.00 to 4.70 | 160 to 199 | O=C(Nc1ccc(CCO)c(S(=O)(=O)Nc2ccc(Br)cc2)c1)c1ncco1 [Compound 333, N-(3-(N-(4-bromophenyl)sulfamoyl)-4-(2-hydroxyethyl)phenyl) oxazole-2-carboxamide]
4.00 to 4.70 | 200 to 300 | COc1ccc(NC(=O)c2nccs2)cc1S(=O)(=O)Nc1ccc(F)cc1 [Compound 345]
4.00 to 4.70 | 200 to 300 | COc1ccc(NC(=O)c2cnc(C(F)(F)F)[nH]2)cc1S(=O)(=O)Nc1ccc(F)cc1C [Compound 348]
